No end group written: not given here. *: point of attachment. Palmitoyl = CCCCCCCCCCCCCCCC(=O)*
What was measured:
heart = test: Phage screen of 12 phage in mice with myocardial infarction; format: in vivo; settings: for time point preference of heart localization after infarct: 1, 3 and 7 days post-MI; for preferential localization of phage-displayed peptide in the heart: mice 1, 3 and 7 days after MI, phage circulated 10 minutes
Procedure: A limited phage screen of 12 phage was performed in a study against mice with myocardial infarction (MI) lasting 1, 3 and 7 days. This panel of phage was selected to include phage with a greater potential for injured tissue, a positive non-specific control and a negative control phage. All publications and references cited in FIG. 24 are incorporated by reference to the extent such incorporation is not contrary to the invention described therein. Nothing herein is to be construed as an admission that the invention is not entitled to antedate such disclosure by virtue of prior invention.
Amplified phage were mixed in a 1:1 ratio and 200 μl injected at 1×10^9 pfu/ml into animals 1, 3 and 7 days after myocardial ischemia was produced. Phage were allowed to circulate for 10 minutes before the animal was perfused through the left ventricle with warmed DMEM/BSA (1%, ˜10 ml) with the right ventricle cut. Tissues (heart, lung, liver, spleen, kidney) were then harvested and stored on ice in 1 ml of DMEM/BSA (1%) before homogenization (Omni International TH homogenizer). Four washes were performed using PBS/BSA (1%) with centrifugation at 2800 RCF (5 min, 4° C.) and resuspension in PBS/BSA (1%). After the final wash, homogenates were weighed then lysed with 100 μl Triton-X-100 (1% in PBS) on ice for 15 minutes; 900 ul of BLT5403 (OD 600) was then added and incubated for 10 minutes (r.t.). This solution was then serially diluted in LB+CarbenicilHn and 240 ul aliquots taken into 1.2 ml BLT5403 and 600 μl plated on 10 cm agar plates with 4 ml top agar. Following overnight incubation, plaques were counted and the pfu/g tissue homogenate was calculated. Plaques were picked into 30 μl of PBS, 1 μl of this solution was transferred into 14 μl PCR mix (GoTaq Green Master Mix 7.5 μl, 1.5 μl 5 μM T7down (AACCCCTCAAGACCCGTTTA (SEQ ID NO: 13)), 1.5 μl 5 μM T7 Superup (AGCGGACCAGATTATCGCTA (SEQ ID NO: 24)), 3.5 μl of DNAse free water). This mix was then subjected to polymerase chain reaction (PCR) (1 cycle of 5 min 94° C.; 35 cycles of 94° C. 30 s, 50° C. 30 s, 72° C. 1 min; 1 cycle 72° C. 1 min; hold at 4° C.). The PCR samples then underwent cleanup and sequencing.

ischemic hindlimb = test: Fluorescent peptide homing studies, mouse hindlimb ischemia model; format: in vivo; settings: for homing of peptide in the mouse ischemic hindlimb: cryosections, FIG. 16; for tissue to which the peptide homed: fluorescent peptide studies
Procedure: Four palmitated peptides were synthesized: SK(biotin)[…] […] Human mesenchymal stem cells (hMSCs) were transiently coated with the four palmitated peptides and fluorescently labeled with Vybrant dye. […] MSCs were grown in DMEM/FBS (10%) supplemented with FGF (5 ng/ml), then trypsinized, washed with DMEM and aliquoted at 1 million cells/vial and resuspended in Tyrodes. […] Cell solutions were then centrifuged (200 RCF, 5 min, r.t.), washed twice with cold Tyrodes, then incubated for 20 min with 20 μg/ml streptavidin-PE (S866 Invitrogen), washed with Tyrodes, fixed with formalin, and then assessed using flow cytometry and epifluorescent microscopy.
For animal experiments, MSCs were first incubated with Vybrant green (CDFA SE; Invitrogen) washed with Tyrodes, then coated with 50 μg/ml PA-peptides for 10 min at 37° C. with shaking. Following coating, cells were washed with Tyrodes twice and resuspended to give 5×10^6 cells/ml. Ischemia was produced in the left hind-limb through ligation and severing of the femoral artery in mice. Three days post ischemia, mice were injected with […] through the subclavian vein and cells allowed to circulate for two hours before sacrifice. Distribution of injected MSCs was monitored by whole-body (“Xenogen”) fluoroscopy. Animals were sacrificed and tissues (heart, lung, liver, spleen, kidney, left calf muscle, left femur muscle, right calf muscle and right femur muscle) were harvested and fluorescence histology was done on tissue cryosections.

heart tissue = test: Homing of peptide-coated MSCs in mouse MI reperfusion model; format: in vivo, C57BL6 mice; settings: for distribution of cells within heart tissue: coated MSCs, 1 hour circulation, day after 30 minute ischemia/reperfusion
Procedure: C57BL6 mice were operated on with a sterile surgical technique. Mice were anaesthetized and intubated. A longitudinal incision was made in the thorax and the heart elevated. The left anterior descending artery was identified, and a ligature suture was placed around the artery and tightened down over a piece of polyethylene tubing placed above the artery, as shown in FIG. 1. After 30 minutes the ligation was released, the chest closed and the mouse was allowed to recover. The following day the mouse was again anaesthetized and intubated, the thoracotomy re-opened and cells administered through the left ventricle (1×10^6 cells). Cells were allowed to circulate for 1 hour before blood was collected into EDTA tubes and the mouse sacrificed via exsanguination. Blood was collected just prior to exsanguination to provide samples for assay of Troponin I levels.
Sections were cryosectioned 8 microns thick, mounted in sequence onto slides and viewed for the fluorescent label of the cells.
Histology sections of cardiac tissues were examined for VYBRANT® (CDFA SE; Invitrogen) green-labeled cells to determine the cells' propensity to target or home to distinct regions of the tissues, especially those associated with the infarcted region. Outcomes were evaluated via quantitative fluorescent microscopy of infarcted and non-infarcted tissues. Area in millimeters squared were calculated from representative cross-sections and numbers of cells were counted on a series of sections taken through the heart.
Sections of heart tissue were also analyzed using fluorescent microscopy. Five slides containing six sections per slide were analyzed. On each section a count of the number of cells was made. The count was then normalized against the area of the centre section on that slide.
An enzyme-linked immunosorbent assay (ELISA) (Life Diagnostics, Inc., Cat. No. 2010-1-HSP) of cardiac troponin I was made on the plasma collected from each mouse according to the manufacturer's method. Briefly, 60 μl of plasma sample was diluted with 180 μl plasma diluent. Standards and samples (100 μl) were added to coated wells containing 100 μl of cardiac troponin I horse radish peroxidase conjugate. These were mixed on an orbital shaker at room temperature for 1 hour. This solution was removed and the wells were washed thoroughly; 100 μl of tetramethylbenzidine reagent was then added to each well. This was incubated on the orbital shaker at room temperature for 20 minutes, then stop solution was added (100 μl) and the absorbance read at 450 nm (Tecan Genios Pro).

[1] = system: human mesenchymal stem cells (MSCs)
Procedure: MSCs were grown in Dulbecco's Modified Eagle's Medium (DMEM) and fetal bovine serum (FBS) (10%) supplemented with fibroblast growth factor-2 (FGF-2) (5 ng/ml) for 1 week. They were then trypsinized, washed with DMEM, aliquoted at 1 million cells/vial and resuspended in Tyrodes' balanced salt solution. […] was later used throughout the coating procedure. […] Cell solutions were centrifuged (200 RCF, 5 min, r.t.), washed twice with cold Tyrodes solution, then incubated for 20 minutes with 20 μg/ml streptavidin-PE (S866 Invitrogen), washed with Tyrodes solution, fixed with formalin, and then assessed using flow cytometry and epifluorescent microscopy.

ischemic hearts = test: Uptake and localization of fluorescently labeled CRPPR in ischemic hearts; format: in vivo, mouse; settings: 30 minutes, 6 hour and 24 hour ischemia
Procedure: Fluorescently labeled CRPPR (SEQ ID NO: 1) was also studied for uptake and localization in ischemic hearts (30 minutes, 6 hour and 24 hour ischemia). This fluorescently labeled peptide was injected through the subclavian vein and allowed to circulate for two hours before sacrifice. Tissues (heart, lung, liver, spleen and kidney) were harvested, placed in TISSUE-TEK® molds and frozen in OCT cryomounting medium. The tissues were stored on dry ice until being placed at −80° C. and 8-10 μn sections were made.
Sections of heart tissue through different regions of the heart were imaged using a fluorescent microscope and CCD camera. The images were then assessed for total fluorescence using ImageJ (Image Processing and Analysis in Java) (see FIG. 2).

[2] = system: human mesenchymal stem cells (MSCs); test: MTT toxicity assay of PA-peptides; format: cell-based; settings: 1 hour incubation
Procedure: Human mesenchymal stem cells (MSCs) were seeded on 96-well plates (5.8×10^3 cells/well; DMEM/FBS 10%) and allowed to grow/adhere for 2 days. Media was removed and PA-peptides were added (0-0.1 mg/ml) to the cells. Toxicity was assessed after 10 minute incubation and 1 hour incubation. Acute effects were assessed immediately following the 10 minute exposure, and longer-term effects were measured the next day after the 10 minute exposure and the 1 hour exposure. Toxicity was assessed using the MTT method. Briefly, 20 μl of MTT (5 mg/ml in PBS, sterile filtered, Corning 0.22 μm Polyethersulfone) was added to each well and the plate was then incubated for 4 hours at 37° C. Media containing MTT was then carefully removed and 100 μl of dimethyl sulfoxide (DMSO) was added to each well. Plates were incubated for a further 30 minutes at 37° C. to solubilize the purple formazan crystals, and absorbance was then measured using a plate reader (570 nm; Tekan Genios Pro).

Row | Substance | preferential localization of phage-displayed peptide in the heart (heart) | distribution of cells within heart tissue (heart tissue) | tissue to which the peptide homed (ischemic hindlimb) | further results
1 | CREKA (Targeting Sequence 8) | some preferential localization in the heart | – | – | time point preference of heart localization after infarct (heart): three day time point
2 | CRKDKC (cysteine pairing not given here; also: fluorescent label, position not given here) | some preferential localization | – | – | homing of peptide in the mouse ischemic hindlimb (ischemic hindlimb): homing
3 | CARSKNKDC (Targeting Sequence 5) | some preferential localization in the heart | – | – | –
4 | PA-SK(Biotin)NSCARSKNKDC [PA-BioCAR] | – | distributed throughout the cardiac muscle | homed to ischemic skeletal muscle tissue | correlation between heart damage (cardiac troponin I) and cell number (heart tissue; FIG. 14): more cells localizing in the heart after relatively larger damage; cell labeling by the peptide ([1]; FIGS. 4 and 5): labeled the cells efficiently; cell-associated fluorescence ([1]; PA-BioCAR 0 to 2 mg/ml, 10 minutes, 37° C., streptavidin-PE): increasing cell-associated fluorescence with increasing PA-BioCAR concentration
5 | CRPPR (not fully specified) | some preferential localization in the heart | – | – | ischemia time at which localization was most pronounced (ischemic hearts): most pronounced after 24 hour ischemia; localization of fluorescent peptide in heart tissue (ischemic hearts; two hours circulation): localize in heart tissue; time point preference of heart localization after infarct (heart): some preference for the earlier time point after infarct
6 | PA-KSTRKS (Palmitoyl-KSTRKS) [palmitated peptide (cell paint)] | – | distributed cells with some localization in vessels | homed to ischemic skeletal muscle tissue | concentrations causing a decrease in mitochondrial activity [2]: ≥ 50 µg/mL
7 | PA-CRKDKC (Palmitoyl-CRKDKC; cysteine pairing not given here) [palmitated peptide (cell paint)] | – | papillary fibers have a higher concentration of cells than the cardiac muscle | homed to ischemic muscle tissue | –
8 | CGLIIQKNEC (Targeting Sequence 3) [Clot1, homing peptide] | – | – | – | homing of peptide in the mouse ischemic hindlimb (ischemic hindlimb): homing
9 | PA-CRPPR (Palmitoyl-CRPPR) [palmitated peptide (cell paint)] | – | some localization with vasculature | homed to cardiac tissue | –

Source: patent publication US8580749B2, “Peptide-coated cell localization to diseased or damaged tissues and methods related thereto” (Cell Targeting, Inc., priority 2009, dated 2013)
